The source of these data is patent publication US8563714B2, “Bridged spiro [2.4] heptane derivatives as ALX receptor and/or FPRL2 agonists” (Actelion Pharmaceuticals Ltd., priority 2009, dated 2013).

The term EC50 denotes the concentration that produces a half-maximal response.

The target of one assay is T1, human ALX receptor (Homo sapiens, UniProt P25090).
T1 construct: expressed in transfected cells; host or cells: HEK293 (HEK293-hALXR-Gα16)
T1 sequence (P25090 1-351): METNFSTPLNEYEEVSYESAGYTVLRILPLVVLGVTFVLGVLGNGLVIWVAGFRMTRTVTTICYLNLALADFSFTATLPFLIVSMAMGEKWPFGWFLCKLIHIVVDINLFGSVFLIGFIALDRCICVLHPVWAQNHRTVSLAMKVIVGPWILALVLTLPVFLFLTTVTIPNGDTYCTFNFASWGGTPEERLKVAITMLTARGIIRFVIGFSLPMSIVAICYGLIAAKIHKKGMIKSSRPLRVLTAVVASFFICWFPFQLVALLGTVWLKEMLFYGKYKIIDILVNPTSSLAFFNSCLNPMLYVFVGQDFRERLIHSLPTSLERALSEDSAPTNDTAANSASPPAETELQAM
In words: Intracellular calcium measurements (FLIPR), agonistic activity in HEK293-hALXR-Gα16 cells. In kind it is cell-based. Conditions: Fluo-4 calcium FLIPR, normalized to WKYMVm 10 nM. The method, boiled down:
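HEK293 cells expressing hALXR and Gα16 were loaded with 1 μM Fluo-4 AM and 20 mM HEPES for 60 min at 37°C, then exposed to serially diluted compound. FLIPR fluorescence was read at ex 488/em 540 nm. Baseline-subtracted peak responses were normalized to 10 nM WKYMVm.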

A further assay concerns the target T2, human FPRL2 (Homo sapiens, UniProt P25089).
T2 construct: expressed in transfected cells; host or cells: HEK293 (HEK293-hFPRL2-Gα16)
T2 sequence (P25089 1-353): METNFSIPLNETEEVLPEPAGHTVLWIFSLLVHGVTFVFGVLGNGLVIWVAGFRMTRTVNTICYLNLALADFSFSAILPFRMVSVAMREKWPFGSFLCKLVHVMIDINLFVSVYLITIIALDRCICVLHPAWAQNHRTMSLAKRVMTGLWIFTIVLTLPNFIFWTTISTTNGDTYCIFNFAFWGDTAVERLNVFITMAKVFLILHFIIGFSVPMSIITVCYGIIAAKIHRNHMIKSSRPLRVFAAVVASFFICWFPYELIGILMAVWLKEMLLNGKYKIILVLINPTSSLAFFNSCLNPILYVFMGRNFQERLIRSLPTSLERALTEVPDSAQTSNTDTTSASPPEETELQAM
The assay is described as follows: Intracellular calcium measurements (FLIPR), agonistic activity in HEK293-hFPRL2-Gα16 cells. The assay is classed as cell-based. The settings on record: Fluo-4 calcium FLIPR, normalized to GLY14-Humanin 100 nM. The method, boiled down: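 Peak values after baseline subtraction are expressed relative to 100 nM Gly14-Humanin; compounds diluted in assay buffer from 10 mM DMSO stocks.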
(Calcium assays in cells follow changes in intracellular calcium, usually with a dye or a luminescent sensor.)

Each structure is given as a SMILES string.

Take `O=C(NCCCCN1CCCC1)[C@H]1[C@H](C(=O)NCc2c(F)ccc(F)c2Cl)[C@@H]2C=C[C@H]1C21CC1` (racemic) [Example 371, (5R*)—N^5-(2-Chloro-3,6-difluorophenyl-methyl)-(6R*)—N^6-(4-pyrrolidino-butyl)-(4S*,7R*)-[4,7-ethenylene-spiro[2.4]heptane]-5,6-dicarboxamide]: the 50% effective concentration (EC50) at human ALX receptor was greater than 25000 nM; at human FPRL2, 271 nM.

Consider `O=C(NCCO)[C@H]1[C@H](C(=O)Nc2ncc(Br)s2)[C@@H]2CC[C@H]1C21CC1` [Example 403, (5R)—N^5-(5-Bromothiazol-2-yl)-(6R)—N^6-(2-hydroxyethyl)-(4S,7R)-[4,7-ethylene-spiro[2.4]heptane]-5,6-dicarboxamide], for which the figures for the EC50 at human ALX receptor and at human FPRL2 were 158 nM and 21400 nM, respectively.

Regarding `O=C(NC1CCNCC1)[C@H]1[C@H](C(=O)NCc2ccc(Br)cc2)[C@@H]2C=C[C@H]1C21CC1` (racemic) [Example 306, (5R*)—N^5-(4-Bromophenyl-methyl)-(6R*)—N^6-(piperidin-4-yl)-(4S*,7R*)-[4,7-ethenylene-spiro[2.4]heptane]-5,6-dicarboxamide], the EC50 came out at 23 nM on human ALX receptor and 2760 nM at human FPRL2.

Consider `COc1ccc(NC(=O)[C@H]2[C@H](C(=O)NCCCCN3CCCC3)[C@H]3C=C[C@@H]2C32CC2)cn1` (racemic) [Example 250, (5R*)—N^5-(2-Methoxy-pyrid-5-yl)-(6R*)—N^6-(4-pyrrolidin-1-yl-butyl)-(4S*,7R*)-[4,7-ethenylene-spiro[2.4]heptane]-5,6-dicarboxamide], for which the results for the half-maximal effective concentration (EC50) on human ALX receptor and on human FPRL2 were 673 nM and 746 nM, respectively.

With `CC(C)(CN)CNC(=O)[C@H]1[C@H](C(=O)NCc2ccc(Br)cc2)[C@@H]2C=C[C@H]1C21CC1` (racemic) [Example 310, (5R*)—N^5-(4-Bromophenyl-methyl)-(6R*)—N^6-(2,2-dimethyl-3-amino-propyl)-(4S*,7R*)-[4,7-ethenylene-spiro[2.4]heptane]-5,6-dicarboxamide], the concentration giving a half-maximal response (EC50) is 26 nM at human ALX receptor and 466 nM at human FPRL2.

Regarding `O=C(NCCCN1CCCC1)[C@H]1[C@H](C(=O)Nc2ncc(Br)s2)[C@@H]2C=C[C@H]1C21CC1` (racemic) [Example 237, (5R*)—N^5-(5-Bromo-thiazol-2-yl)-(6R*)—N^6-(3-pyrrolidin-1-yl-propyl)-(4S*,7R*)-[4,7-ethenylene-spiro[2.4]heptane]-5,6-dicarboxamide], the concentration for a half-maximal effect (EC50) at human ALX receptor is 305 nM; on human FPRL2 it was 542 nM.

`O=C(NCCCCN1CCCC1)[C@H]1[C@H](C(=O)NCc2c(F)cc(Br)cc2F)[C@@H]2C=C[C@H]1C21CC1` [Example 317, (5R)—N^5-(4-Bromo-2,6-difluorophenyl-methyl)-(6R)—N^6-(4-pyrrolidin-1-yl-butyl)-(4S,7R)-[4,7-ethenylene-spiro[2.4]heptane]-5,6-dicarboxamide]: the EC50 on human ALX receptor worked out at 28 nM; on human FPRL2, 44 nM.

For `CC(=O)c1cccc(CNC(=O)[C@H]2[C@H](C(=O)NCCCCN3CCCC3)[C@H]3C=C[C@@H]2C32CC2)c1` (racemic) [Example 359, (5R*)—N^5-(3-Acetylphenyl-methyl)-(6R*)—N^6-(4-pyrrolidino-butyl)-(4S*,7R*)-[4,7-ethenylene-spiro[2.4]heptane]-5,6-dicarboxamide], the values for the half-maximal effective concentration (EC50) at human ALX receptor and at human FPRL2 were 8350 nM and 359 nM, respectively.

For the compound `O=C(NCCCCN1CCCC1)[C@H]1[C@H](C(=O)Nc2ccc(Br)cc2F)[C@@H]2C=C[C@H]1C21CC1` [Example 295, (5R)—N^5-(4-Bromo-2-fluorophenyl)-(6R)—N^6-(4-pyrrolidino-butyl)-(4S,7R)-[4,7-ethenylene-spiro[2.4]heptane]-5,6-dicarboxamide], the EC50 at human ALX receptor turned out to be 1.3 nM; on human FPRL2 it was 116 nM.

For the compound `CC(=O)c1csc(CNC(=O)[C@H]2[C@H](C(=O)NCCN(C)C)[C@H]3C=C[C@@H]2C32CC2)n1` (racemic) [Example 266, (5R*)—N^5-(4-Acetyl-thiazol-2-yl-methyl)-(6R*)—N^6-(2-dimethylamino-ethyl)-(4S*,7R*)-[4,7-ethenylene-spiro[2.4]heptane]-5,6-dicarboxamide], the concentration for a half-maximal effect (EC50) at human ALX receptor was found to be 65 nM; at human FPRL2 it was 1210 nM.

As for `O=C(NCCCCN1CCCC1)[C@H]1[C@H](C(=O)Nc2ccc(Br)c(F)c2)[C@@H]2C=C[C@H]1C21CC1` [Example 288, (5R)—N^5-(4-Bromo-3-fluorophenyl)-(6R)—N^6-(4-pyrrolidino-butyl)-(4S,7R)-[4,7-ethenylene-spiro[2.4]heptane]-5,6-dicarboxamide], the half-maximal effective concentration (EC50) at human ALX receptor worked out at 0.87 nM; at human FPRL2, 33 nM.

For `Cc1ccc(CNC(=O)[C@H]2[C@H](C(=O)NCCCCN3CCCC3)[C@H]3C=C[C@@H]2C32CC2)c(C)c1` (racemic) [Example 347, (5R*)—N^5-(2,4-Dimethylphenyl-methyl)-(6R*)—N^6-(4-pyrrolidino-butyl)-(4S*,7R*)-[4,7-ethenylene-spiro[2.4]heptane]-5,6-dicarboxamide], the concentration giving a half-maximal response (EC50) is 1800 nM at human ALX receptor and 417 nM on human FPRL2.

Regarding `O=C(NCCCCN1CCCC1)[C@H]1[C@H](C(=O)NCc2ccc(OC(F)(F)F)cc2)[C@@H]2C=C[C@H]1C21CC1` (racemic) [Example 232, (5R*)—N^5-(4-Trifluoromethoxy-phenyl-methyl)-(6R*)—N^6-(4-pyrrolidin-1-yl-butyl)-(4S*,7R*)-[4,7-ethenylene-spiro[2.4]heptane]-5,6-dicarboxamide], the EC50 at human ALX receptor is 1260 nM; at human FPRL2 it was 112 nM.

On to `Cc1cc(CNC(=O)[C@H]2[C@H](C(=O)NCCCCN3CCCC3)[C@H]3C=C[C@@H]2C32CC2)no1` (racemic) [Example 255, (5R*)—N^5-(5-Methyl-isoxazol-3-yl-methyl)-(6R*)—N^6-(4-pyrrolidin-1-yl-butyl)-(4S*,7R*)-[4,7-ethenylene-spiro[2.4]heptane]-5,6-dicarboxamide], for which the concentration giving a half-maximal response (EC50) was 40 nM at human ALX receptor and 489 nM at human FPRL2.

On to `CN1CCC(NC(=O)[C@H]2[C@H](C(=O)Nc3ccc(Br)cc3)[C@@H]3C=C[C@H]2C32CC2)CC1` (racemic) [Example 86, (5R*)—N^5-(4-Bromophenyl)-(6R*)—N^6—(N-methyl-piperidin-4-yl)-(4S*,7R*)-[4,7-ethenylene-spiro[2.4]heptane]-5,6-dicarboxamide], for which the values for the EC50 on human ALX receptor and at human FPRL2 were 147 nM and 6940 nM, respectively.

Turning to `COc1ccc(CCNC(=O)[C@H]2[C@H](C(=O)NCCCCN3CCCC3)[C@H]3C=C[C@@H]2C32CC2)cc1Br` (racemic) [Example 384, (5R*)—N^5-(2-(3-Bromo-4-methoxyphenyl)ethyl)-(6R*)—N^6-(4-pyrrolidino-butyl)-(4S*,7R*)-[4,7-ethenylene-spiro[2.4]heptane]-5,6-dicarboxamide], the half-maximal effective concentration (EC50) at human ALX receptor came out at 10300 nM; on human FPRL2 it was 72 nM.

Regarding `O=C(NCCCN1CCOCC1)[C@H]1[C@H](C(=O)Nc2ccc(Br)cc2)[C@@H]2C=C[C@H]1C21CC1` (racemic) [Example 87, (5R*)—N^5-(4-Bromophenyl)-(6R*)—N^6-(3-morpholino-propyl)-(4S*,7R*)-[4,7-ethenylene-spiro[2.4]heptane]-5,6-dicarboxamide], the 50% effective concentration (EC50) on human ALX receptor is 156 nM; on human FPRL2, 2200 nM.

On to `Cc1cc(C(=O)NC[C@H]2[C@H](C(=O)Nc3ccc(Br)cc3)[C@@H]3C=C[C@H]2C32CC2)nn1C` (racemic) [Example 178, (5R*)—N^5-(4-Bromo-phenyl)-(6R*)-6-{[(1,5-dimethyl-1H-pyrazole-3-carbonyl)-amino]-methyl}-(4S*,7R*)-[4,7-ethenylene-spiro[2.4]heptane]-5-carboxamide], for which the half-maximal effective concentration (EC50) on human ALX receptor is 115 nM; on human FPRL2, 4070 nM.

Take `COC(=O)CCCC(=O)NC[C@H]1[C@H](C(=O)Nc2ccc(Br)cc2)[C@@H]2C=C[C@H]1C21CC1` (racemic) [Example 166, (5R*)—N^5-(4-Bromo-phenyl)-(6R*)-6-{[(4-methoxycarbonyl-butanoyl)-amino]-methyl}-(4S*,7R*)-[4,7-ethenylene-spiro[2.4]heptane]-5-carboxamide]: the 50% effective concentration (EC50) on human ALX receptor turned out to be 88 nM; at human FPRL2, 4710 nM.

Regarding `CN(CCNC(=O)[C@H]1[C@H](C(=O)Nc2ccc(Br)cc2)[C@@H]2C=C[C@H]1C21CC1)C(=O)OC(C)(C)C` (racemic) [Example 47, (5R*)—N^5-(4-Bromophenyl)-(6R*)—N^6-(2-(methyl-tert-butoxycarbonyl-amino)-ethyl)-(4S*,7R*)-[4,7-ethenylene-spiro[2.4]heptane]-5,6-dicarboxamide], the half-maximal effective concentration (EC50) on human ALX receptor was found to be 12 nM; on human FPRL2, 1170 nM.
